Tests used:
[1] = system: CFA-induced paw inflammation; assay: CFA model of inflammatory pain: Hargreaves test and paw weight; assay type: in vivo, rat
Experimental: FIGS. 11A-11E are a series of graphs showing the effect of DHAP on thermal hyperalgesia in the CFA model which is a model for inflammatory pain. […] On the left end of the graph, two doses of DAHP (180 mg/kg i.p.) were injected, the first 30 minutes before injection of CFA into the hindpaw, the second 4 hours after CFA (indicated with arrows D1 and D2). On the right, a single dose (dotted arrow D1) of DAHP (180 mg/kg i.p.) was injected 24 h after induction of paw inflammation without any treatment during the first 24 h following CFA injection. […] In FIGS. 11C-11D, the effects of systemically administered DAHP (180 mg/kg i.p. single dose; 11C) are compared with the effects of a single intrathecal dose (1 mg/kg i.t.; 11D) which was administered via a lumbar spinal catheter. In both cases, treatment was started 24 hours after CFA injection into the hindpaw. Because of slightly different baseline levels (11C compared with 11D) effects of DAHP after i.p. and i.t. treatment are additionally presented as percentage change of paw withdrawal latency (FIG. 11E) to allow for a direct comparison of both routes of administration.
FIG. 12 is a bar graph showing the increase of the paw weight of the inflamed paw compared with the contralateral paw. Paw weight was determined 48 hours following CFA injection. The increase of the paw weight is a measure for the inflammatory paw edema and therefore allows assessment of paw inflammation.
FIGS. 15A and 15B show the effect of the sepiapterin reductase inhibitor, N-acetyl-serotonin (NAS) on thermal hyperalgesia in the CFA model. The paw withdrawal latency (PWL) to radiant heat (Hargreaves test) is a measure for the heat sensitivity. NAS treatment (single dose of 50 mg/kg i.p.) was started 24 hours after CFA injection into the hindpaw. Data are presented as percentage change of the PWL compared with the PWL of the non-inflamed contralateral paw. […] Paw weight was determined 48 hours following CFA injection. The increase of the paw weight is a measure for the inflammatory paw edema.
(§1) Hypersensitivity was induced using the CFA model of paw inflammation. In these experiments, BH4 was injected at time “zero” after measurement of baseline paw withdrawal latency.

GTPCH-1 expression = assay: GTPCH-I in situ hybridization in DRG after SNI; assay type: in vivo; conditions: 14 days after SNI surgery, DAHP vs vehicle
Excerpt: FIG. 27A is a series of photomicrographs of in situ hybridization of GTPCH-I in the ipsilateral (lesioned) and contralateral (control) dorsal root ganglia 3 days (top panel) and 14 days (bottom panel) after SNI surgery. FIG. 27B is a series of photomicrographs of GTPCH-I in situ hybridization 14 days after SNI surgery and treatment with either DAHP or vehicle control.

naïve rats = assay: Response to tactile and heat stimuli in naïve rats; assay type: in vivo, rat; conditions: non-injured animals
Experimental: FIGS. 13A and 13B are a series of graphs showing the effects of DAHP on the response to tactile (13A) and heat stimuli (13B) in naïve rats. A single dose of DAHP (180 mg/kg i.p.) or vehicle was injected at time “zero”.
as §1

[2] = DAHP pharmacokinetics in plasma and CSF; assay type: in vivo, rat; conditions: single dose 180 mg/kg i.p.
Experimental: FIGS. 14A-14C represent a series of graphs showing pharmacokinetic features of DAHP and the pharmacokinetic-pharmacodynamic relationship. […] In addition, concentrations of DAHP in cerebrospinal fluid (CSF) were determined at an early and late time point. In FIG. 14B, plasma concentrations were fitted according to a one-compartment PK model with first order input and first order elimination. PK parameters are presented where Cmax is the maximum concentration, tmax the time of the maximum concentration, k01 is the absorption rate constant, t1/2abs. represents the absorption half-life, k10 is the elimination rate constant, t1/2 el is the elimination half-life, and Cl is the clearance. In FIG. 14C, pooled plasma concentration and effect data of the CFA model were used to assess the PK/PD relationship employing a standard sigmoidal Emax model.

dorsal horn neurons = assay: TUNEL staining of apoptotic profiles in L4/L5 dorsal horn after SNI; assay type: in vivo; conditions: DAHP 180 mg/kg/day i.p., 7 days after SNI
Experimental: FIG. 25 is a bar graph showing the number of apoptotic cell profiles, using TUNEL staining, observed in the L4/L5 dorsal horn 7 days after SNI surgery of animals treated with either 180 mg/kg/day DAHP or vehicle control. Apoptotic neurons were detected by in situ TUNEL labeling and counted by a blinded observer.

[3] = system: formalin injection into the hindpaw; assay: Formalin test: flinching behavior and cFos immunoreactivity in dorsal horn; assay type: in vivo, rat
Experimental: DAHP (180 mg/kg) was injected i.p. one hour before injection of formalin into the hindpaw. Flinches were counted for one hour starting right after formalin injection. FIG. 24A is a series of photo micrographs showing cFos immunoreactivity in ipsilateral dorsal horn neurons two hours after formalin injection in DAHP and vehicle-treated rats. FIG. 24B is a bar graph quantifying the number of cFos immunoreactive cell bodies observed under each condition.

[4] = system: SNI model, nNOS knockout mice; assay: SNI model in nNOS knockout and wild-type mice; assay type: in vivo; conditions: mechanical or cold stimuli
Experimental: In this figure, closed circles represent nNOS knockout mice with DAHP; open circles, nNOS knock out mice with vehicle; closed triangles, wild type mice with DAHP; and open triangles, wild type mice with vehicle. […] In this figure, closed triangles represent L-NAME administration; open circles, L-NAME+DAHP administration; closed circles, DAHP administration; and open triangles, vehicle administration. L-NAME was administered at 25 mg/kg, i.p., single dose, and DAHP was administered at 120 mg/kg, i.p., single dose. The antinociceptive efficacy of this high L-NAME dose is weaker (about 50%) than that of a moderate dose of DAHP.

[5] = system: CCI model of neuropathic pain; assay: Chronic constriction injury (CCI) model of neuropathic pain; assay type: in vivo, rat; conditions: 180 mg/kg/d i.p.
Experimental: FIGS. 9A and 9B are two graphs showing the effect of DAHP on nociceptive behavior in the CCI model of neuropathic pain. […] DAHP treatment (180 mg/kg/d i.p. for 5 days) was started 3 days after surgery and nociceptive behavior was assessed daily before and after drug injection and once every second day after stopping daily drug injections.
All procedures were performed in accordance with Massachusetts General Hospital animal care regulations. Adult male Sprague Dawley rats (200-300 g) were anesthetized with halothane. For the sciatic nerve transection (axotomy), the left sciatic nerve was exposed at the mid thigh level, ligated with 3/0 silk, and sectioned distally. The wound was sutured in two layers, and the animals were allowed to recover. For SNI the tibial and peroneal branch of the sciatic nerve were ligated and transected whereas the sural nerve was spared. For CCI, the sciatic nerve was loosely ligated with dexon 4/0 (three ligatures) and for the spinal ligation model the L5 spinal segmental nerve was ligated.

Compound: Nc1cc(O)nc(N)n1 [DAHP, 2,4-Diamino-6-hydroxypyrimidine]
- thermal hyperalgesia ([1]; DAHP 1 mg/kg i.t. via lumbar spinal catheter): reduced thermal hyperalgesia
- paw withdrawal latency of the non-inflamed contralateral paw ([1]; DAHP 180 mg/kg i.p.): no effect
- thermal hyperalgesia ([1]; DAHP 180 mg/kg i.p., 30 min before or 24 h after CFA): reduced thermal hyperalgesia
- inflammatory paw edema (paw weight) ([1]; DAHP treated vs control, 48 hours after CFA): no difference in the degree of paw inflammation
- GTPCH-1 expression in DRG (GTPCH-1 expression): does not affect GTPCH-1 expression
- motor activity, von Frey and Hargreaves tests (naïve rats; DAHP 180 mg/kg i.p. single dose): did not result in a difference in motor activity
- sedation, general level of activity (naïve rats; DAHP): no obvious signs of sedation
- distribution in cerebrospinal fluid [2]: rapid distribution in the cerebrospinal fluid
- plasma concentration after i.p. injection [2]: rapidly increased
- apoptosis of dorsal horn neurons (TUNEL) (dorsal horn neurons): protects dorsal horn neurons from apoptosis
- flinching behavior in the formalin assay ([3]; single i.p. dose of 180 mg/kg): reduced the flinching behavior
- c-FOS immunoreactivity in ipsilateral dorsal horn neurons ([3]; two hours after formalin, intraperitoneal DAHP, p<0.05): significantly reduced elevation
- anti-nociceptive effects in nNOS knockout vs wild-type mice [4]: do not differ between nNOS knockout mice and wild-type mice
- analgesic effects in CCI model [5]: analgesic effects of DAHP were further confirmed

— patent US7906520B2, “Methods for treating pain” (The General Hospital Corporation, priority 2003, dated 2011)
